The values that follow come from patent publication US20240051954A1, “PYRROLO[3,2-B]PYRIDINE DERIVATIVES USEFUL IN TREATING CONDITIONS ASSOCIATED WITH CGAS” (NOVARTIS AG, priority 2020, published 2024).

Chain of human truncated cGAS enzyme (147-522 human cGAS) (Q8N884 147-522): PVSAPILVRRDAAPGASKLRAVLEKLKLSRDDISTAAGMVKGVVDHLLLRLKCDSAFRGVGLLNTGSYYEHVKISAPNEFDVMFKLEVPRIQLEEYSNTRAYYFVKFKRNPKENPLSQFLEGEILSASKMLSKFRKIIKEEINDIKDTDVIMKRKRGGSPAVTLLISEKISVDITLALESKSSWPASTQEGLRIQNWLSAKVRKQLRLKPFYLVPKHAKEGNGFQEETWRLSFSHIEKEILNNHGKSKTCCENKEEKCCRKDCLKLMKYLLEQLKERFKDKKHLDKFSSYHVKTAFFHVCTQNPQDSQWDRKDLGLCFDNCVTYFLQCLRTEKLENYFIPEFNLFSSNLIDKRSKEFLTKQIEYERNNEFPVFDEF

This assay has as its target human truncated cGAS enzyme (147-522 human cGAS) (Homo sapiens (Human), UniProt Q8N884). Briefly: Quantification of cGAS protein inhibition (cGAMP formation, LC-MS/MS). It is filed as biochemical. To be noted: 30 nM enzyme, 45 bp dsDNA (ISD) 5 μM, GTP and ATP 0.5 mM each, 1 h at room temperature; potential mixture of co-existing tautomers and/or racemates. On the procedure: Example 52: Quantification of cGAS Protein Inhibition
A reagent buffer was prepared in filtered and autoclaved water according to the following: • 50 mM Tris-buffer pH 7.5 (1 M Tris-buffer pH 7.5, Invitrogen, Cat. No. 15567-027); • 50 mM NaCl (5 M NaCl, Sodium Chloride Solution, Sigma, 59222C-); • 5 mM MgCl2 (1 M MgCl2, Sigma, M1028); • 0.1 mM ZnCl2 (Zinc Chloride [7646-85-7], powder, Cell Culture Tested, Sigma, Z-0152); and • 0.001% Tween 20 (TWEEN 20, Sigma Aldrich, P1379-).
A buffer for the cGAS enzyme was prepared in filtered and autoclaved water according to the following: • 50 mM Tris-buffer pH 7.5; • 5 mM MgCl2; and • 0.001% Tween 20.
Compounds were dispensed to a […]. The human truncated cGAS enzyme (4.2 mg/mL 147-522 human cGAS, MW 43,909 g/mol) was stored in 50 mM Tris, 500 mM NaCl, 5% (v/v) glycerol at pH 8 and diluted in the cGAS buffer enzyme shortly before use. The enzyme solution was transferred into the reagent buffer to give a final concentration of 30 nM. The reaction was started by mixing the enzyme with ISD (a 45 bp double stranded DNA, MW 27,670 g/mol, 5 mM), GTP and ATP to a final concentration of 5 μM, 0.5 mM and 0.5 mM respectively in a final volume of 10 μl. The reaction plates were then centrifuged at 1000 rpm for 1 minute and incubated at room temperature for 1 h. After 1 h of incubation, [^15N5]-2′3′-cGAMP to a final concentration of 200 nM and 30 μL of 100% acetonitrile/0.175% of TFA were added to the reaction mixture. The plates were centrifuged at 1000 rpm for 1 minute before being sealed for 3 seconds at 170° C. using a ThermoScientific sealer (ALPS™ 50V) and an aluminum sealing cover (Pierce Seal, 4titude, Product Code: 4TI-0531).
The concentration of cGAMP was measured on a LC-MS/MS system consisting of a THERMO Dionex Ultimate LC system with a high pressure pump, an autosampler, a column heating compartment (Reinach, Switzerland) and a SCIEX Triple Quad 5500 (Framingham, MA, USA) mass spectrometer for detection. The sample plates were centrifuged for 10 minutes at 2000 rpm. Up to three plates were placed in the autosampler for injection. An aliquot of 10 μL of each sample was injected on an XBridge BEH Amide 3.5 μm, 2.1×50 mm column (P/N 186004859) with an XBridge BEH Amide 5 μm 2.1×5 mm VanGuard Cartridge (P/N 186007760) pre-column (both WATERS, MA, USA) held at 40° C. An isocratic flow of 1.0 mL/min solvent (60% ACN, 8 mM ammonium acetate, 5 mM ammonium hydroxide, 0.04% acetic acid) was applied and sprayed into the ion source of the mass spectrometers. The MS parameters were optimized based on the properties of the compounds to be detected and run in positive multi-reaction mode (MRM) based on the mass transitions. LC and MS parameters were also optimized to allow for a sample-to-sample measuring time of approximately 75 sec and a run time of 8 hours per 384-well plate. All data were analyzed with Excel; and the dose response curves were generated using the auto fitting function of XLfit. The IC50 was determined by plotting the cGAMP concentration ratio (cGAMP divided by the internal standard [^15N5]-2′3′-cGAMP) versus the concentration of compound.
Broadly, the IC50 is the point on the concentration scale where inhibition reaches its midpoint. For the compound `COc1nc2c(-c3cn[nH]c3)c(-c3nnc(C(F)(F)F)[nH]3)n(C)c2cc1Cl` [Example 1, 6-chloro-5-methoxy-1-methyl-3-(1H-pyrazol-4-yl)-2-(5-(trifluoromethyl)-4H-1,2,4-triazol-3-yl)-1H-pyrrolo[3,2-b]pyridine], the IC50 worked out at 76 nM. As for `COc1nc2c(-c3cn[nH]c3)c(-c3nnc(C(C)(F)F)[nH]3)[nH]c2cc1Cl` [Example 3, 6-chloro-2-(5-(1,1-difluoroethyl)-4H-1,2,4-triazol-3-yl)-5-methoxy-3-(1H-pyrazol-4-yl)-1H-pyrrolo[3,2-b]pyridine], the figure is 32 nM; as for `COc1nc2c(-c3cn[nH]c3)c(-c3nnc(C(C)=O)[nH]3)[nH]c2cc1Cl` [Example 6, 1-(5-(6-chloro-5-methoxy-3-(1H-pyrazol-4-yl)-1H-pyrrolo[3,2-b]pyridin-2-yl)-4H-1,2,4-triazol-3-yl)ethan-1-one], 66 nM. Take `COc1nc2c(-c3cn[nH]c3)c(-c3nnc(F)[nH]3)n(C)c2cc1Cl` [Example 9, 6-chloro-2-(5-fluoro-4H-1,2,4-triazol-3-yl)-5-methoxy-1-methyl-3-(1H-pyrazol-4-yl)-1H-pyrrolo[3,2-b]pyridine]: the IC50 was determined as 267 nM.

As to `COc1nc2c(-c3cn[nH]c3)c(-c3nnc[nH]3)n(C)c2cc1Cl` [Example 14, 6-chloro-5-methoxy-1-methyl-3-(1H-pyrazol-4-yl)-2-(4H-1,2,4-triazol-3-yl)-1H-pyrrolo[3,2-b]pyridine], the IC50 was 3520 nM. On to `COc1nc2c(-c3cn[nH]c3)c(-c3nnc(C(=O)N(C)C)[nH]3)[nH]c2cc1Cl` [Example 16, 5-(6-chloro-5-methoxy-3-(1H-pyrazol-4-yl)-1H-pyrrolo[3,2-b]pyridin-2-yl)-N,N-dimethyl-4H-1,2,4-triazole-3-carboxamide], for which the half-maximal inhibitory concentration (IC50) stood at 30 nM.

With `COc1nc2c(-n3ccnc3)c(-c3nnc(C(=O)N(C)C)[nH]3)n(C)c2cc1Cl` [Example 17, 5-(6-chloro-3-(1H-imidazol-1-yl)-5-methoxy-1-methyl-1H-pyrrolo[3,2-b]pyridin-2-yl)-N,N-dimethyl-4H-1,2,4-triazole-3-carboxamide], the IC50 is 116 nM.

In the case of `COc1nc2c(-n3ccnc3)c(-c3nnc(C(OC)C(F)(F)F)[nH]3)n(C)c2cc1Cl` (centres unmarked) [Example 26, 6-chloro-3-(1H-imidazol-1-yl)-5-methoxy-1-methyl-2-(5-(2,2,2-trifluoro-1-methoxyethyl)-4H-1,2,4-triazol-3-yl)-1H-pyrrolo[3,2-b]pyridine], the IC50 turned out to be 107 nM. With `COCC(O)c1nnc(-c2c(-n3ccnc3)c3nc(OC)c(Cl)cc3n2C)[nH]1` (centres unmarked) [Example 29, 1-(5-(6-chloro-3-(1H-imidazol-1-yl)-5-methoxy-1-methyl-1H-pyrrolo[3,2-b]pyridin-2-yl)-4H-1,2,4-triazol-3-yl)-2-methoxyethan-1-ol], the IC50 amounted to 295 nM. As for `COCC(F)(F)c1nnc(-c2c(-n3ccnc3)c3nc(OC)c(Cl)cc3n2C)[nH]1` [Example 30, 6-chloro-2-(5-(1,1-difluoro-2-methoxyethyl)-4H-1,2,4-triazol-3-yl)-3-(1H-imidazol-1-yl)-5-methoxy-1-methyl-1H-pyrrolo[3,2-b]pyridine], the half-maximal inhibitory concentration (IC50) came to 186 nM. In the case of `COc1nc2c(-n3ccnc3)c(-c3nnc(F)[nH]3)n(C)c2cc1Cl` [Example 33, 6-chloro-2-(5-fluoro-4H-1,2,4-triazol-3-yl)-3-(1H-imidazol-1-yl)-5-methoxy-1-methyl-1H-pyrrolo[3,2-b]pyridine], the IC50 came to 332 nM. As to `COCC(c1nnc(-c2c(-n3ccnc3)c3nc(OC)c(Cl)cc3n2C)[nH]1)N(C)C` (centres unmarked) [Example 36, 1-(5-(6-chloro-3-(1H-imidazol-1-yl)-5-methoxy-1-methyl-1H-pyrrolo[3,2-b]pyridin-2-yl)-4H-1,2,4-triazol-3-yl)-2-methoxy-N,N-dimethylethan-1-amine], the IC50 was 454 nM. As for `COCC(c1nnc(-c2c(-c3cn[nH]c3)c3nc(OC)c(Cl)cc3n2C)[nH]1)N(C)C` (centres unmarked) [Example 37, 1-(5-(6-chloro-5-methoxy-1-methyl-3-(1H-pyrazol-4-yl)-1H-pyrrolo[3,2-b]pyridin-2-yl)-4H-1,2,4-triazol-3-yl)-2-methoxy-N,N-dimethylethan-1-amine], the half-maximal inhibitory concentration (IC50) worked out at 123 nM. For the compound `COc1nc2c(-n3ccnc3)c(-c3nnc(/C(C)=N/OCCO)[nH]3)n(C)c2cc1Cl` [Example 40, (E/Z)-1-(5-(6-chloro-3-(1H-imidazol-1-yl)-5-methoxy-1-methyl-1H-pyrrolo[3,2-b]pyridin-2-yl)-4H-1,2,4-triazol-3-yl)ethan-1-one O-(2-hydroxyethyl)oxime], the IC50 came to 101 nM. Consider `COc1nc2c(-c3cn[nH]c3)c(-c3nnc(C(C)=O)[nH]3)n(C)c2cc1Cl` [Example 42, 1-(5-(6-chloro-5-methoxy-1-methyl-3-(1H-pyrazol-4-yl)-1H-pyrrolo[3,2-b]pyridin-2-yl)-4H-1,2,4-triazol-3-yl)ethan-1-one], for which the 50% inhibitory concentration (IC50) is 66 nM.

Regarding `COc1nc2c(-c3cn[nH]c3)c(-c3nnc(C(=O)N(C)C)[nH]3)n(C)c2cc1Cl` [Example 43, 5-(6-chloro-5-methoxy-1-methyl-3-(1H-pyrazol-4-yl)-1H-pyrrolo[3,2-b]pyridin-2-yl)-N,N-dimethyl-4H-1,2,4-triazole-3-carboxamide], the concentration for half-maximal inhibition (IC50) was found to be 98 nM. Turning to `COc1nc2c(-n3ccnc3)c(-c3nnc(C(F)(F)F)[nH]3)n(C)c2cc1Cl` [Example 45], the half-inhibitory concentration (IC50) is 384 nM.

Turning to `COc1nc2c(-n3ccnc3)c(-c3nnc(C(F)(F)F)[nH]3)[nH]c2cc1Cl` [Example 46, 6-chloro-3-(1H-imidazol-1-yl)-5-methoxy-2-(5-(trifluoromethyl)-4H-1,2,4-triazol-3-yl)-1H-pyrrolo[3,2-b]pyridine], the half-maximal inhibitory concentration (IC50) turned out to be 80 nM.

For the compound `Cn1c(-c2nnc(C(F)(F)F)[nH]2)c(-c2cn[nH]c2)c2nc(O)c(Cl)cc21` [Example 50, 6-chloro-1-methyl-3-(1H-pyrazol-4-yl)-2-(5-(trifluoromethyl)-4H-1,2,4-triazol-3-yl)-1H-pyrrolo[3,2-b]pyridin-5-ol], the IC50 came to 741 nM.

With `COc1nc2c(-n3ccnc3)c(-c3nnc(CN(C)C)[nH]3)n(C)c2cc1Cl` [Example 51, 1-(5-(6-chloro-3-(1H-imidazol-1-yl)-5-methoxy-1-methyl-1H-pyrrolo[3,2-b]pyridin-2-yl)-4H-1,2,4-triazol-3-yl)-N,N-dimethylmethanamine], the IC50 is 308 nM.
